Paper doi:10.1101/365775v1 (biorxiv, 2018)

Target: T1, mSec18 (monomeric Sec18; Sec18His8) (Saccharomyces cerevisiae, UniProt P18759)
T1 sequence (P18759 1-758): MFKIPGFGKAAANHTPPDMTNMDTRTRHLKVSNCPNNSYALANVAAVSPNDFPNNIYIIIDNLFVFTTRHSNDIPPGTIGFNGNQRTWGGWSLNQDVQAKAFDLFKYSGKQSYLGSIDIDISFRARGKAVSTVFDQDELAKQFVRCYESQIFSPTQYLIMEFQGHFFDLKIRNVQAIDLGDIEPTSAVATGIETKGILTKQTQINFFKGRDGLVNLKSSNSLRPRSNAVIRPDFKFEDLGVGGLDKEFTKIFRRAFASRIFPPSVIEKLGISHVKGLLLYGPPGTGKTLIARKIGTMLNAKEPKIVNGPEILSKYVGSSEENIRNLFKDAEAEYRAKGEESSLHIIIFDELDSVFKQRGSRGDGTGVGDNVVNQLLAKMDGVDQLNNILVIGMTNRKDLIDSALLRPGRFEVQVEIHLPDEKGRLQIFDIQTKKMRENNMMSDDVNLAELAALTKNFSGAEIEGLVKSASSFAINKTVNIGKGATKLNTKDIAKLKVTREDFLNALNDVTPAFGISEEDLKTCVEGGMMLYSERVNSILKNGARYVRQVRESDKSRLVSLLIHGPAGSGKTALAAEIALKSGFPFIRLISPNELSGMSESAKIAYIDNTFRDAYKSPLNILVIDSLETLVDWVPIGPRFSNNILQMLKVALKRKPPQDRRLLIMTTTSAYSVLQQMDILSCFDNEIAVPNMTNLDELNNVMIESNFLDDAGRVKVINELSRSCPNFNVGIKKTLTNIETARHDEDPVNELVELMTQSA
Experiment: microscale thermophoresis
Format: binding

- Kd: 56 ± 16 µM
Compound: Nc1ncnc2c1ncn2[C@@H]1O[C@H](COP(=O)(O)OP(=O)(O)OP(=O)(O)O)[C@@H](O)[C@H]1O [ATP]
